Experimental data published in PMC4827351 (Chemical Science, 2015).

How the values were obtained:
[1] = tested on: Salmonella enterica serovar Typhimurium; experiment: SEM analysis of bacterial agglutination; assay type: cell-based; conditions: 3 µM proHD6 treated with trypsin before incubation (trypsin inactivated with APMSF), 30 min, 50 mM Tris-maleate pH 6.4
Description: Bacteria were grown aerobically at 37 °C overnight in LB media. The next morning the strains were subcultured and grown to mid-logarithmic phase in LB media. An aliquot of the bacteria (0.5–2 × 10^7 CFU mL^–1) was removed, sedimented by centrifugation (7000g × 2 min, 4 °C), washed twice with 50 mM Tris-maleate buffer, pH 6.4, and then resuspended in 0.5 mL of the 50 mM Tris-maleate buffer. The bacterial suspension was incubated at room temperature for 30 min with buffer control, 0.4 μM APMSF-inactivated trypsin, 3 μM proHD6, 3 μM trypsin-cleaved proHD6, or 3 μM HD6. Trypsin-cleaved proHD6 was prepared by incubating 30 μM proHD6 with 4 μM trypsin (Affimetrix, Santa Clara, CA) for 1 h at room temperature in 50 mM Tris-maleate buffer, pH 6.4. At the end of incubation, the trypsin was inactivated by addition of APMSF (p-amidinophenylmethylsulfonylfluoride HCl, Millipore, 25 μg mL^–1), and the mixture was added to the bacterial suspension. The APMSF-inactivated trypsin was similarly prepared, except that proHD6 was omitted from the preincubation. After a 30 min incubation, the treated bacterial suspensions were sedimented by centrifugation (7000g × 5 min, 4 °C), and the buffer supernatant was carefully removed. […]

E. coli ATCC 25922 = experiment: Cuvette-based bacterial agglutination assay; assay type: cell-based, Escherichia coli; conditions: n = 3
Text: We previously reported a simple cuvette-based in vitro agglutination assay that enables time-dependent monitoring of agglutination of viable bacteria by HD6.[15] We employed this assay to further characterize the trypsin-dependent activity of proHD6 on cultured bacterial cells (Fig. 4a and b). […] In these assays, we defined the “supernatant” as the culture solution in the top portion of the cuvette and the “re-suspension” as the mixture that results from agitating the entire culture after the 6 h incubation period.[15] We observed an ≈1.5-fold log reduction in CFU mL^–1 for the “supernatant” from cultures treated with combination of trypsin and proHD6 relative to the no-peptide control (Fig. 4c). Following “re-suspension”, the total CFU mL^–1 in the cuvette was indistinguishable from that of either the untreated control culture or the bacterial culture treated with proHD6.
Fig. 4 Bacterial agglutination assays for native and cleaved proHD6. (a) Agglutination of E. coli ATCC 25922 and L. monocytogenes ATCC 19115 in 50% MHB treated with proHD6 in the absence and presence of 0.4 μM trypsin or HD6 (control). (b) Representative images of cuvettes containing E. coli ATCC 25922 or L. monocytogenes ATCC 19115 after incubation with 20 μM peptides for 2 h at room temperature. (c) Plots of colony forming units (CFU mL^–1) of E. coli ATCC 25922 and L. monocytogenes ATCC 19115 after treatment with 20 μM peptides for 6 h (mean ± SDM, n = 3). Supernatant is defined as the clarified medium solution in the top portion of the culture and resuspension is defined as the mixture after thoroughly agitating the heterogeneous solution.
Stock solutions (50 μL) of HD6 and proHD6 (0, 50, 100, and 200 μM; 10× concentrations) were prepared in sterile Milli-Q water. If trypsin was required, aliquots of a 1 mg mL^–1 stock solution of TPCK-treated trypsin (Worthington) prepared in sterile Milli-Q water were added to solutions of proHD6 to afford a final trypsin concentration of 0.01 mg mL^–1. The assays were then conducted following the reported procedure.[15] […]

EPLQAEDDPLQAKAYEADAQEQRGANDQDFAVSFAEDASSSLRALGSTRAFTCHCRRSCYSTEYSYGTCTVMGINHRFCCL (disulfide (positions not given here)) [proHD6, 81-residue propeptide of human α-defensin 6, recombinant, from His6-SUMO-proHD6]
bacterial agglutination (SEM), trypsin-cleaved [1]: did not agglutinate S. Typhimurium unless it was treated with trypsin
total CFU mL^-1 after re-suspension versus untreated control culture or culture treated with proHD6 (E. coli ATCC 25922; 20 µM proHD6 + trypsin, 6 h, entire culture agitated): indistinguishable
agglutination of bacterial culture in cuvette, with trypsin (E. coli ATCC 25922; proHD6 + 0.4 µM (0.01 mg/mL) trypsin, 10^8 CFU mL^-1, 50% MHB, room temperature): bacterial agglutination and sedimentation occurred
agglutination of bacterial culture in cuvette (E. coli ATCC 25922; proHD6 up to 20 µM, no trypsin, 10^8 CFU mL^-1, 50% MHB, 6 h, room temperature): remained homogeneous
